# Assay results published in PubChem BioAssay (NCI).
#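 At the GI50, growth is halved. TGI is the concentration that stops growth completely.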
# Key:
# Experiment in all cases: NCI-60 cell line screen, 384-well format
# [1] = test system: ACHN renal
# [2] = test system: MDA-MB-435 melanoma
# [3] = test system: NCI-H522 lung
# [4] = test system: HOP-92 NSCLC
# [5] = test system: KM12 colon
# [6] = test system: SF-268 CNS
# [7] = test system: SNB-75 CNS
# [8] = test system: CCRF-CEM leukemia
# [9] = test system: EKVX NSCLC
# [10] = test system: RXF 393 renal
# [11] = test system: HCC-2998 colon
# [12] = test system: SK-MEL-5 melanoma
# [13] = test system: HCT-15 colon
# [14] = test system: UACC-62 melanoma
# [15] = test system: SN12C renal
# [16] = test system: HT29 colon
# [17] = test system: COLO 205 colon
# [18] = test system: NCI-H460 NSCLC
# [19] = test system: SR leukemia
# [20] = test system: T-47D breast
# [21] = test system: SF-539 CNS
# [22] = test system: U251 glioblastoma
# [23] = test system: OVCAR-8 ovarian
# [24] = test system: OVCAR-3 ovarian
# [25] = test system: UO-31 renal
# [26] = test system: OVCAR-5 ovarian
# [27] = test system: HOP-62 NSCLC
# [28] = test system: MDA-MB-231 breast
# [29] = test system: HCT-116 colon
# [30] = test system: A549 NSCLC
# [31] = test system: DU-145 prostate
# [32] = test system: K-562 leukemia
# [33] = test system: TK-10 renal
# [34] = test system: MCF7 breast
# [35] = test system: A498 renal
# [36] = test system: SK-OV-3 ovarian
# [37] = test system: UACC-257 melanoma
# [38] = test system: HL-60(TB) leukemia
# [39] = test system: OVCAR-4 ovarian
# [40] = test system: NCI-H226 lung
# [41] = test system: NCI-H23 lung
# [42] = test system: 786-0 renal
# [43] = test system: IGROV1 ovarian
# [44] = test system: SNB-19 CNS
# [45] = test system: SW-620 colon
# [46] = test system: PC-3 prostate
# [47] = test system: NCI/ADR-RES ovarian
# [48] = test system: SK-MEL-28 melanoma
# [49] = test system: MOLT-4 leukemia
# [50] = test system: RPMI-8226 leukemia
# [51] = test system: MDA-MB-468 breast
# [52] = test system: SF-295 CNS
# [53] = test system: MALME-3M melanoma
# [54] = test system: CAKI-1 renal
# [55] = test system: BT-549 breast
# [56] = test system: NCI-H322M lung
smiles,measurement,setting,value
O=C(Cc1cccc(OC(F)(F)F)c1)Nc1ccc(CCCCc2nnc(NC(=O)Cc3ccccn3)s2)nn1,GI50,[1],2520 nM
same,TGI,[1],> 71 µM
same,GI50,[2],> 100 µM
same,TGI,[2],> 100 µM
same,GI50,[3],75 nM
same,TGI,[3],4.05 µM
same,GI50,[4],6.95 µM
same,TGI,[4],32.4 µM
same,GI50,[5],68 nM
same,TGI,[5],> 100 µM
same,GI50,[6],201 nM
same,TGI,[6],1980 nM
same,GI50,[7],18.5 µM
same,TGI,[7],55.9 µM
same,GI50,[8],375 nM
same,TGI,[8],> 100 µM
same,GI50,[9],2740 nM
same,TGI,[9],> 100 µM
same,GI50,[10],37.2 nM
same,TGI,[10],141 nM
same,TGI,[11],> 100 µM
same,GI50,[12],891 nM
same,TGI,[12],17.2 µM
same,GI50,[13],> 72.6 µM
same,TGI,[13],> 100 µM
same,GI50,[14],4.76 µM
same,TGI,[14],> 33.5 µM
same,GI50,[15],21.7 nM
same,GI50,[16],> 100 µM
same,TGI,[16],> 100 µM
same,GI50,[17],36.2 µM
same,TGI,[17],> 100 µM
same,GI50,[18],165 nM
same,TGI,[18],19.2 µM
same,GI50,[19],439 nM
same,TGI,[19],18.7 µM
same,GI50,[20],1870 nM
same,TGI,[20],9.66 µM
same,GI50,[21],224 nM
same,TGI,[21],14.4 µM
same,GI50,[22],33.8 nM
same,TGI,[22],11.8 µM
same,GI50,[23],1220 nM
same,TGI,[23],17.3 µM
same,GI50,[24],> 21.4 µM
same,TGI,[24],> 100 µM
same,GI50,[25],5.66 µM
same,GI50,[26],362 nM
same,TGI,[26],> 100 µM
same,GI50,[27],53.7 nM
same,TGI,[27],335 nM
same,GI50,[28],33.9 nM
same,TGI,[28],18.8 µM
same,GI50,[29],162 nM
same,TGI,[29],> 33.4 µM
same,GI50,[30],17.2 nM
same,TGI,[30],61 nM
same,GI50,[31],31.4 µM
same,TGI,[31],> 100 µM
same,GI50,[32],8.95 µM
same,TGI,[32],> 100 µM
same,GI50,[33],637 nM
same,TGI,[33],18.3 µM
same,GI50,[34],6.1 µM
same,TGI,[34],> 100 µM
same,GI50,[35],30.3 nM
same,TGI,[35],160 nM
same,GI50,[36],80.9 nM
same,TGI,[36],25.2 µM
same,GI50,[37],14.4 µM
same,TGI,[37],48 µM
same,GI50,[38],687 nM
same,TGI,[38],> 100 µM
same,GI50,[39],9.65 µM
same,TGI,[39],> 31.1 µM
same,GI50,[40],282 nM
same,TGI,[40],983 nM
same,GI50,[41],4.78 µM
same,TGI,[41],39.6 µM
same,GI50,[42],29.4 nM
same,TGI,[42],248 nM
same,GI50,[43],> 31.6 µM
same,TGI,[43],> 31.6 µM
same,GI50,[44],39.4 µM
same,TGI,[44],97.2 µM
same,GI50,[45],> 100 µM
same,TGI,[45],> 100 µM
same,GI50,[46],> 100 µM
same,TGI,[46],> 100 µM
same,GI50,[47],> 100 µM
same,TGI,[47],> 100 µM
same,GI50,[48],30.8 µM
same,TGI,[48],> 87.1 µM
same,GI50,[49],2040 nM
same,TGI,[49],> 100 µM
same,GI50,[50],37.7 nM
same,TGI,[50],175 nM
same,GI50,[51],8.47 µM
same,TGI,[51],93.3 µM
same,GI50,[52],5.17 µM
same,TGI,[52],> 23.1 µM
same,GI50,[53],23.1 µM
same,TGI,[53],> 56.7 µM
same,GI50,[54],193 nM
same,TGI,[54],18 µM
same,GI50,[55],2260 nM
same,TGI,[55],11.2 µM
same,GI50,[56],19.9 nM
same,TGI,[56],55.1 nM
